# Measurements taken from paper PMC6356742, “Novel Characteristics of Mitochondrial Electron Transport Chain from Eimeria tenella” (Genes, 2019).
# “Also recorded” adds a separate entry of the source. Read-outs that look alike come from different tables or passages of the source.
# Tests used:
# P. y. yoelii complex II = conditions: cited from earlier work; for IC50: P. y. yoelii, read-out: IC50 of Succinate-cyt c Activity
# [1] = target: succinate-cytochrome c reductase activity (Complex II-III); assay: Inhibition of succinate-cytochrome c reductase activity (Complex II-III) of E. tenella mitochondria-rich fraction; type: biochemical, Eimeria tenella; conditions: for IC50: E. tenella mitochondria-rich fraction, complex II-III activity, read-out: IC50 of Succinate-cyt c Activity
# Description: (§1) All enzyme assays were performed using 5–10 µg of the mitochondria-rich fraction using black quartz cuvettes in 0.6 mL reaction mixture at 25 °C. The reagents used in each assay were mixed with a reaction buffer containing 50 mM potassium phosphate (pH 7.4) (KPi Buffer) and 2 mM EDTA.
# Cytochrome c–linked NADH, G3P, malate, succinate, and DHO dehydrogenase activities were determined in a reaction mixture containing 30 µM horse heart cytochrome c and 2 mM KCN at 550 nm (ε = 19 mM^−1 cm^−1) by adding 0.2 mM NADH, 5 mM malate, 5 mM G3P, 8.3 mM succinate, and 0.4 mM DHO, respectively, into the reaction buffer.
# (§2) […]; As the positive control for complex II-III inhibition assay, 0.1 μM of stigmatellin (complex III inhibitor) was used.
# bovine complex II = conditions: cited from earlier work
# Succinate-cyt c activity [2] = conditions: Rat; cited from earlier work
# E. tenella complex II = E. tenella complex II (Eimeria tenella, UniProt U6KGY0+U6KWN9); assay: Inhibition of succinate-dUQ (SQR) activity of E. tenella complex II; type: biochemical; conditions: for Inhibition of E. tenella complex II: even at higher concentration of 50 μM
# Chain of E. tenella complex II (U6KGY0 entry or part of it): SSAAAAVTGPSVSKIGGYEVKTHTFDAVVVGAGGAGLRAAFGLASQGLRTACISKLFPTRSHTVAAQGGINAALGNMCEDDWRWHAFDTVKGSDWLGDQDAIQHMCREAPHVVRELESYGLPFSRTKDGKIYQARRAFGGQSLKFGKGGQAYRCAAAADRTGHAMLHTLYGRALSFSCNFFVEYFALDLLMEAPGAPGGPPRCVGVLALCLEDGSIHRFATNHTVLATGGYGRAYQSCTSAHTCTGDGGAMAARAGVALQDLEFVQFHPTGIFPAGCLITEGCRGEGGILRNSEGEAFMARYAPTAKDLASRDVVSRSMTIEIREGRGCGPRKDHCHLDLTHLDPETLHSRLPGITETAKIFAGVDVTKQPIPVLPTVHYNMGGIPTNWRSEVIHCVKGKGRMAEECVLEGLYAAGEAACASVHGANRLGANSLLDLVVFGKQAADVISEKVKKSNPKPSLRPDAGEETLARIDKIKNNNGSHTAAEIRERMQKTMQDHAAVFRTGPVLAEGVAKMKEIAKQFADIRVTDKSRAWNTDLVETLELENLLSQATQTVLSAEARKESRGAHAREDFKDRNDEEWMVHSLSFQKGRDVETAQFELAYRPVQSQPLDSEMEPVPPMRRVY
# Chain of E. tenella complex II (U6KWN9 entry or part of it): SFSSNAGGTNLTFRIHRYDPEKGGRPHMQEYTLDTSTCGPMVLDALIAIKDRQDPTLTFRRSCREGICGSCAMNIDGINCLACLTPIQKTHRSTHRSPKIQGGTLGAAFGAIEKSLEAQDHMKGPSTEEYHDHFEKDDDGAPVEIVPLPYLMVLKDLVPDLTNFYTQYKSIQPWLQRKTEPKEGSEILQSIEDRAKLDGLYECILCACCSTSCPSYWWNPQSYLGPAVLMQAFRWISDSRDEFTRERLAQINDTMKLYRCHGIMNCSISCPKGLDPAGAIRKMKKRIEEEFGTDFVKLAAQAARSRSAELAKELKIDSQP
# Description: as §1
# Individual G3PDH, MQO, SDH, and DHODH activities were assayed at 278 nm in the presence of each substrate as described above, however, instead of cytochrome c, 50 µM of decylubiquinone (dUQ) (ε = 15 mM^−1 cm^−1) was added. The NDH-2 activity was measured following the consumption of NADH at 340 nm.
# as §2
# Succinate-cyt c activity [3] = conditions: Porcine; cited from earlier work
# Ascaris suum complex II = conditions: cited from earlier work
# complex II [4] = system: complex II; parameters: method as in PMID 19505951; conditions: read-out: IC50 for complex II from L. donovani; cited from earlier work
# complex II [5] = system: complex II; parameters: method as in PMID 19505951; conditions: read-out: IC50 for complex II from T. cruzi; cited from earlier work
# complex II [6] = system: complex II; parameters: method as in PMID 19505951; conditions: read-out: IC50 for complex II from Trypanosoma brucei; cited from earlier work
# complex II [7] = system: complex II; parameters: method as in PMID 19505951; conditions: read-out: IC50 for complex II from Leishmania tarentolae; cited from earlier work
# [8] = system: NADH oxidase activity (NDH-2-Complex III-IV); assay: NADH oxidase activity (NDH-2-Complex III-IV) of E. tenella mitochondria-rich fraction; type: biochemical, Eimeria tenella; conditions: for NADH oxidase specific activity after addition: consecutive additions: 2 mM KCN, then 2 mM fumarate, then 5 mM malonate, without additions 5.9 ± 0.9, experiment C
structure (smiles),measurement,setting,value
"COc1[nH]c(=O)c(C(=O)[C@@H](C)C[C@H](C)[C@@H](Cl)CCl)c(O)c1OC [Atpenin A5, atpenin A5]",IC50,P. y. yoelii complex II,4.2 ± 0.2 µM
same,Fold lower sensitivity of P. y. yoelii complex II to atpenin A5,P. y. yoelii complex II,about 600 fold
same,IC50,[1],> 50 µM
same,IC50,bovine complex II,0.004 µM
same,IC50,Succinate-cyt c activity [2],0.007 ± 0.0003 µM
"CC1=C(C(=O)Nc2ccccc2)SCCO1 [Carboxin, carboxin]",IC50,P. y. yoelii complex II,3.6 ± 1 µM
same,IC50,[1],> 50 µM
same,IC50,bovine complex II,1 µM
same,Inhibition of E. tenella complex II,E. tenella complex II,did not inhibit
same,IC50,Succinate-cyt c activity [2],3.8 ± 0.1 µM
"CC(C)Oc1cccc(NC(=O)c2ccccc2C(F)(F)F)c1 [Flutolanil, flutolanil]",IC50,P. y. yoelii complex II,> 100 µM
same,IC50,Succinate-cyt c activity [3],> 50 µM
same,IC50,[1],> 50 µM
same,Inhibition of E. tenella complex II,E. tenella complex II,did not inhibit
same,IC50,Succinate-cyt c activity [2],> 100 µM
same,IC50,Ascaris suum complex II,0.081 µM
"Cc1cc(O)c2c(c1)O[C@@]1(C)CC[C@H]3C(C)(C)CCC[C@]34CO[C@@H]2[C@H]41 [Siccanin, siccanin]",IC50,complex II [4],1.17 µM
same,IC50,Succinate-cyt c activity [3],861 ± 822 µM
same,IC50,[1],4 ± 0.6 µM
same,IC50,complex II [5],1.48 µM
same,Inhibition of the SQR activity of complex II,E. tenella complex II; E. tenella,did not inhibit
same,IC50,"E. tenella complex II; E. tenella, SQR activity of complex II, read-out: IC50 determined for succinate-dUQ activity",> 50 µM
same,Inhibition of E. tenella complex II,E. tenella complex II,did not inhibit
same,IC50,complex II [6],0.368 µM
same,IC50,complex II [7],0.19 µM
same,IC50,Succinate-cyt c activity [2],9.3 ± 1 µM
"C/C=C(C)/C=C/C=C/[C@H](OC)[C@@H](C)[C@@H](OC)[C@@H](C)CCc1oc2c(O)c(OC)cc(OC)c2c(=O)c1C [Stigmatellin, stigmatellin]",Percentage inhibition of succinate-cyt c activity,"[1]; E. tenella, 100 nM stigmatellin, positive control for complex III inhibition",78.4 ± 13.1% ^2
O=C(O)/C=C/C(=O)O [fumarate],NADH oxidase specific activity after addition,[8],1.3 ± 0.3 μmol/min/mg protein
O=C(O)CC(=O)O [malonate],Effect on NADH oxidase / fumarate-dependent NADH oxidation activity,"[8]; 2 mM KCN on NADH oxidase, 5 mM malonate on fumarate-restored activity in presence of KCN",abolished; also recorded: completely inhibited
same,NADH oxidase specific activity after addition,[8],−0.5 ± 0.3 μmol/min/mg protein
